Laboratory results: ChEMBL document CHEMBL5634161, “Discovery of benzamide-based PI3K/HDAC dual inhibitors with marked pro-apoptosis activity in lymphoma cells” (Eur J Med Chem, 2023)

Legend:
[1] = system: JeKo-1; test: Synergistic antiproliferative activity against human JeKo-1 cells assessed as combination index at 2.5 uM incubated for 48 hrs in presence of 2.5 uM 4-(3-(4-(4-methoxy-6-morpholino-1,3,5-triazin-2-yl)phenyl)urea)-N-(2-ethylamino)ethylbenzamide by resazurin dye based fluorescence microplate reader analysis; type: functional
[2] = system: JeKo-1; test: Synergistic antiproliferative activity against human JeKo-1 cells assessed as combination index at 0.625 uM incubated for 48 hrs in presence of 1.25 uM 4-(3-(4-(4-methoxy-6-morpholino-1,3,5-triazin-2-yl)phenyl)urea)-N-(2-ethylamino)ethylbenzamide by resazurin dye based fluorescence microplate reader analysis; type: functional
[3] = system: JeKo-1; test: Induction of apoptosis in human JeKo-1 cells assessed as late apoptotic cells at 1 uM incubated for 48 hrs by Annexin-V/FITC and PI staining based flow cytometric analysis (reference value: 3.66%); type: functional
[4] = system: JeKo-1; test: Synergistic antiproliferative activity against human JeKo-1 cells assessed as combination index at 2.5 uM incubated for 48 hrs in presence of 0.625 uM 4-(3-(4-(4-methoxy-6-morpholino-1,3,5-triazin-2-yl)phenyl)urea)-N-(2-ethylamino)ethylbenzamide by resazurin dye based fluorescence microplate reader analysis; type: functional
[5] = target: Phosphatidylinositol 4,5-bisphosphate 3-kinase catalytic subunit alpha isoform (Homo sapiens, UniProt P42336); test: Inhibition of PI3Kalpha (unknown origin) using PIP2 as substrate incubated for 1 hrs in presence of ATP by ADP-Glo kinase assay
[6] = system: JeKo-1; test: Induction of apoptosis in human JeKo-1 cells assessed as necrotic cells at 0.25 uM incubated for 48 hrs by Annexin-V/FITC and PI staining based flow cytometric analysis (reference value: 1.05%); type: functional
[7] = system: JeKo-1; test: Induction of apoptosis in human JeKo-1 cells assessed as early apoptotic cells at 0.5 uM incubated for 48 hrs by Annexin-V/FITC and PI staining based flow cytometric analysis (reference value: […]); type: functional
[8] = system: JeKo-1; test: Induction of apoptosis in human JeKo-1 cells assessed as viable cells at 0.5 uM incubated for 48 hrs by Annexin-V/FITC and PI staining based flow cytometric analysis (reference value: 94.1%); type: functional; details: read-out: Activity
[9] = system: MM1.S; test: Antiproliferative activity against human MM1.S cells incubated for 48 hrs by resazurin dye based fluorescence micro plate reader analysis; type: functional, cell-based
[10] = system: JeKo-1; test: Synergistic antiproliferative activity against human JeKo-1 cells assessed as combination index at 5 uM incubated for 48 hrs in presence of 5 uM 4-(3-(4-(4-methoxy-6-morpholino-1,3,5-triazin-2-yl)phenyl)urea)-N-(2-ethylamino)ethylbenzamide by resazurin dye based fluorescence microplate reader analysis; type: functional
[11] = system: JeKo-1; test: Induction of apoptosis in human JeKo-1 cells assessed as viable cells at 1 uM incubated for 48 hrs by Annexin-V/FITC and PI staining based flow cytometric analysis (reference value: 94.1%); type: functional; details: read-out: Activity
[12] = system: JeKo-1; test: Synergistic antiproliferative activity against human JeKo-1 cells assessed as combination index at 1.25 uM incubated for 48 hrs in presence of 5 uM 4-(3-(4-(4-methoxy-6-morpholino-1,3,5-triazin-2-yl)phenyl)urea)-N-(2-ethylamino)ethylbenzamide by resazurin dye based fluorescence microplate reader analysis; type: functional
[13] = system: JeKo-1; test: Synergistic antiproliferative activity against human JeKo-1 cells assessed as combination index at 1.25 uM incubated for 48 hrs in presence of 1.25 uM 4-(3-(4-(4-methoxy-6-morpholino-1,3,5-triazin-2-yl)phenyl)urea)-N-(2-ethylamino)ethylbenzamide by resazurin dye based fluorescence microplate reader analysis; type: functional
[14] = system: JeKo-1; test: Synergistic antiproliferative activity against human JeKo-1 cells assessed as combination index at 1.25 uM incubated for 48 hrs in presence of 2.5 uM 4-(3-(4-(4-methoxy-6-morpholino-1,3,5-triazin-2-yl)phenyl)urea)-N-(2-ethylamino)ethylbenzamide by resazurin dye based fluorescence microplate reader analysis; type: functional
[15] = system: JeKo-1; test: Induction of apoptosis in human JeKo-1 cells assessed as late apoptotic cells at 0.25 uM incubated for 48 hrs by Annexin-V/FITC and PI staining based flow cytometric analysis (reference value: 3.66%); type: functional
[16] = system: JeKo-1; test: Synergistic antiproliferative activity against human JeKo-1 cells assessed as combination index at 0.625 uM incubated for 48 hrs in presence of 0.625 uM 4-(3-(4-(4-methoxy-6-morpholino-1,3,5-triazin-2-yl)phenyl)urea)-N-(2-ethylamino)ethylbenzamide by resazurin dye based fluorescence microplate reader analysis; type: functional
[17] = system: JeKo-1; test: Induction of apoptosis in human JeKo-1 cells assessed as necrotic cells at 1 uM incubated for 48 hrs by Annexin-V/FITC and PI staining based flow cytometric analysis (reference value: 1.05%); type: functional
[18] = system: MDA-MB-231; test: Antiproliferative activity against human MDA-MB-231 cells incubated for 48 hrs by resazurin dye based fluorescence micro plate reader analysis; type: functional, cell-based; details: MDA-MB-231, 48 h
[19] = Cytotoxicity against human HL7702 cells incubated for 48 hrs by resazurin dye based fluorescence micro plate reader analysis; type: toxicity, cell-based; details: HL7702 (L02) cells
[20] = system: JeKo-1; test: Synergistic antiproliferative activity against human JeKo-1 cells assessed as combination index at 5 uM incubated for 48 hrs in presence of 1.25 uM 4-(3-(4-(4-methoxy-6-morpholino-1,3,5-triazin-2-yl)phenyl)urea)-N-(2-ethylamino)ethylbenzamide by resazurin dye based fluorescence microplate reader analysis; type: functional
[21] = system: JeKo-1; test: Antiproliferative activity against human JeKo-1 cells incubated for 48 hrs by resazurin dye based fluorescence micro plate reader analysis; type: functional, cell-based; details: JeKo-1, 48 h
[22] = system: HL-60; test: Antiproliferative activity against human HL-60 cells incubated for 48 hrs by resazurin dye based fluorescence micro plate reader analysis; type: functional, cell-based; details: HL-60, 48 h
[23] = system: JeKo-1; test: Synergistic antiproliferative activity against human JeKo-1 cells assessed as combination index at 0.625 uM incubated for 48 hrs in presence of 2.5 uM 4-(3-(4-(4-methoxy-6-morpholino-1,3,5-triazin-2-yl)phenyl)urea)-N-(2-ethylamino)ethylbenzamide by resazurin dye based fluorescence microplate reader analysis; type: functional
[24] = system: JeKo-1; test: Synergistic antiproliferative activity against human JeKo-1 cells assessed as combination index at 2.5 uM incubated for 48 hrs in presence of 5 uM 4-(3-(4-(4-methoxy-6-morpholino-1,3,5-triazin-2-yl)phenyl)urea)-N-(2-ethylamino)ethylbenzamide by resazurin dye based fluorescence microplate reader analysis; type: functional
[25] = system: JeKo-1; test: Induction of apoptosis in human JeKo-1 cells assessed as early apoptotic cells at 0.25 uM incubated for 48 hrs by Annexin-V/FITC and PI staining based flow cytometric analysis (reference value: […]); type: functional
[26] = system: JeKo-1; test: Synergistic antiproliferative activity against human JeKo-1 cells assessed as combination index at 2.5 uM incubated for 48 hrs in presence of 1.25 uM 4-(3-(4-(4-methoxy-6-morpholino-1,3,5-triazin-2-yl)phenyl)urea)-N-(2-ethylamino)ethylbenzamide by resazurin dye based fluorescence microplate reader analysis; type: functional
[27] = system: JeKo-1; test: Induction of apoptosis in human JeKo-1 cells assessed as early apoptotic cells at 1 uM incubated for 48 hrs by Annexin-V/FITC and PI staining based flow cytometric analysis (reference value: […]); type: functional
[28] = system: JeKo-1; test: Induction of apoptosis in human JeKo-1 cells assessed as late apoptotic cells at 0.5 uM incubated for 48 hrs by Annexin-V/FITC and PI staining based flow cytometric analysis (reference value: 3.66%); type: functional
[29] = system: JeKo-1; test: Induction of apoptosis in human JeKo-1 cells assessed as viable cells at 0.25 uM incubated for 48 hrs by Annexin-V/FITC and PI staining based flow cytometric analysis (reference value: 94.1%); type: functional; details: read-out: Activity
[30] = system: JeKo-1; test: Synergistic antiproliferative activity against human JeKo-1 cells assessed as combination index at 0.625 uM incubated for 48 hrs in presence of 5 uM 4-(3-(4-(4-methoxy-6-morpholino-1,3,5-triazin-2-yl)phenyl)urea)-N-(2-ethylamino)ethylbenzamide by resazurin dye based fluorescence microplate reader analysis; type: functional
[31] = system: JeKo-1; test: Synergistic antiproliferative activity against human JeKo-1 cells assessed as combination index at 5 uM incubated for 48 hrs in presence of 2.5 uM 4-(3-(4-(4-methoxy-6-morpholino-1,3,5-triazin-2-yl)phenyl)urea)-N-(2-ethylamino)ethylbenzamide by resazurin dye based fluorescence microplate reader analysis; type: functional
[32] = system: JeKo-1; test: Synergistic antiproliferative activity against human JeKo-1 cells assessed as combination index at 5 uM incubated for 48 hrs in presence of 0.625 uM 4-(3-(4-(4-methoxy-6-morpholino-1,3,5-triazin-2-yl)phenyl)urea)-N-(2-ethylamino)ethylbenzamide by resazurin dye based fluorescence microplate reader analysis; type: functional
[33] = system: JeKo-1; test: Synergistic antiproliferative activity against human JeKo-1 cells assessed as combination index at 1.25 uM incubated for 48 hrs in presence of 0.625 uM 4-(3-(4-(4-methoxy-6-morpholino-1,3,5-triazin-2-yl)phenyl)urea)-N-(2-ethylamino)ethylbenzamide by resazurin dye based fluorescence microplate reader analysis; type: functional
[34] = system: JeKo-1; test: Induction of apoptosis in human JeKo-1 cells assessed as necrotic cells at 0.5 uM incubated for 48 hrs by Annexin-V/FITC and PI staining based flow cytometric analysis (reference value: 1.05%); type: functional

Chain of Phosphatidylinositol 4,5-bisphosphate 3-kinase catalytic subunit alpha isoform (P42336 whole entry, canonical isoform): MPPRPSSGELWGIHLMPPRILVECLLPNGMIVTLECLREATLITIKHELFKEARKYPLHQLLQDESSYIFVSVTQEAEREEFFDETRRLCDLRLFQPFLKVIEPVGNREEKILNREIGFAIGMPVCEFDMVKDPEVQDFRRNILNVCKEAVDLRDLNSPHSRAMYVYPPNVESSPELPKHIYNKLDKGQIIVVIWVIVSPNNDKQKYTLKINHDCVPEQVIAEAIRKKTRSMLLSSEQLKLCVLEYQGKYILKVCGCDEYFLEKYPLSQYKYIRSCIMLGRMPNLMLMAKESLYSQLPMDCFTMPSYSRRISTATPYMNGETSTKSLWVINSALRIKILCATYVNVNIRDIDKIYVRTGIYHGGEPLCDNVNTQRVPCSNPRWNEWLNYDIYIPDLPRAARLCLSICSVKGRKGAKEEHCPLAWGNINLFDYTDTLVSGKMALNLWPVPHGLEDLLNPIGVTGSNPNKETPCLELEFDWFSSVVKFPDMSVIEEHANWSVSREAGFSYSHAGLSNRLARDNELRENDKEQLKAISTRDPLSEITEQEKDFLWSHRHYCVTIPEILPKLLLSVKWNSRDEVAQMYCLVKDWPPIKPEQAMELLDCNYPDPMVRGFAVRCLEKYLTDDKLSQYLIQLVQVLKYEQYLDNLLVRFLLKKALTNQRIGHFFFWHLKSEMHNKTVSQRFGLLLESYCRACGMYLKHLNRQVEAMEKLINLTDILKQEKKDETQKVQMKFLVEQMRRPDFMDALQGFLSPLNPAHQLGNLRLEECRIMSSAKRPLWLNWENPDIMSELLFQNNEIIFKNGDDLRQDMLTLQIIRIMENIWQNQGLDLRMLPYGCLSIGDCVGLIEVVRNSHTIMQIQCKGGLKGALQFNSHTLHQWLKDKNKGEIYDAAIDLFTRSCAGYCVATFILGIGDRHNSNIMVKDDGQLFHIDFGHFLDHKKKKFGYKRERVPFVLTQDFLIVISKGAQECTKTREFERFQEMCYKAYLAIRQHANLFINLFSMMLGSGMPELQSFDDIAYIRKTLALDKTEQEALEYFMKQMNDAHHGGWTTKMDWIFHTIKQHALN

## CC(=O)Nc1ccc(C(=O)Nc2ccccc2N)cc1 [TACEDINALINE]
[1]
  CI: 0.274
[2]
  CI: 0.575
[3]
  Activity: 4.73%
[4]
  CI: 0.592
[5]
  IC50: > 10 µM
[6]
  Activity: 0.37%
[7]
  Activity: 1.48%
[8]
  viability at 0.5 µM: 92.4%
[9]
  IC50: 4.7 µM
[10]
  CI: 0.191
[11]
  viability at 1 µM: 92.4%
[12]
  CI: 0.191
[13]
  CI: 0.431
[14]
  CI: 0.342
[15]
  Activity: 5.6%
[16]
  CI: 0.711
[17]
  Activity: 0.59%
[18]
  IC50: 10.9 µM
[19]
  IC50 at 48 h: > 100 µM
[20]
  CI: 0.39
[21]
  IC50: 1.9 µM
[22]
  IC50: 2.8 µM
[23]
  CI: 0.475
[24]
  CI: 0.119
[25]
  Activity: 1.46%
[26]
  CI: 0.443
[27]
  Activity: 2.3%
[28]
  Activity: 5.62%
[29]
  viability at 0.25 µM: 92.6%
[30]
  CI: 0.43
[31]
  CI: 0.221
[32]
  CI: 0.61
[33]
  CI: 0.629
[34]
  Activity: 0.51%
